These results are taken from patent publication US4853470A, “3-(piperidinyl)- and 3-(pyrrolidinyl)-1H-indazoles” (Hoechst-Roussel Pharmaceuticals, Inc., priority 1988, dated 1989).

Each structure is given as a SMILES string. Where two headings read alike, the source gives them in different places.

The subject of assay [1] is tetrabenazine induced ptosis. In words: tetrabenazine induced ptosis assay (antidepressant activity). It is filed as in vivo, mice. The conditions noted are these: Mus musculus, ip, read-out: ED50, inhibition of ptosis. The text has this: The 3-(piperidinyl)- and 3-(pyrrolidinyl)-1H-indazoles of the present invention are also useful as antidepressants by virtue of their ability to elicit an antidepressant response in mammals. […] Thus, for example,. the intraperitoneal (i.p.) dose effecting an estimated 50% inhibition of ptosis (ED50) in mice produced in this assay is as follows: […]

The subject of assay [2] is mean arterial blood pressure. Description: antihypertensive activity, indirect tail cuff method, spontaneous hypertensive rat. It counts as in vivo. To be noted: third day. The procedure:
The compounds of the invention are also useful as antihypertensive agents due to their ability to depress blood pressure in mammals. Antihypertensive activity is measured in the spontaneous hypertensive rat by the indirect tail cuff method described in "Methods in Pharmacology," A. Schwartz, Ed., Vol. I, Appleton-Century Crofts, N.Y., 1971, p. 135. In this procedure a group of five animals are treated orally (p.o.) for three days with the test compound in relation to the control group of the same number. The drop in blood pressure is measured on the third day following administration. The antihypertensive activities of some of the compounds, expressed as mm decrease in mean arterial blood pressure are given below: […]

The term ED50 denotes the dose at which the effect has come halfway, by size or by number of responders. Take `CN1CCC(c2nn(-c3ccccc3N)c3ccccc23)CC1.O=C(O)/C=C/C(=O)O` [1-(2-Aminophenyl)-3-(1-methyl-4-piperidinyl)-1H-indazole fumarate]: in assay [1] (estimated 50% inhibition), the median effective dose (ED50) was 19.2 mg/kg.

Regarding `CN1CCC(c2nn(-c3ccccc3Cl)c3ccccc23)CC1.O=C(O)/C=C/C(=O)O` [1-(2-Chlorophenyl)-3-(1-methyl-4-piperidinyl)-1H-indazole fumarate], in assay [1] (estimated 50% inhibition), the ED50 is 5.3 mg/kg.

For the compound `Clc1ccccc1-n1nc(C2CCNCC2)c2ccccc21.O=C(O)/C=C/C(=O)O` [1-(2-Chlorophenyl)-3-(4-piperidinyl)-1H-indazole fumarate], the ED50 in assay [1] (estimated 50% inhibition) was 5.9 mg/kg.

For `CN1CCC(c2nn(-c3ccccc3F)c3ccccc23)CC1.Cl` [1-(2-Fluorophenyl)-3-(1-methyl-4-piperidinyl)-1H-indazole hydrochloride], the ED50 in assay [1] (estimated 50% inhibition) was 1.7 mg/kg.

Take `CN1CCC(c2nn(-c3cccc(F)c3)c3ccccc23)CC1.Cl` [1-(3-Fluorophenyl)-3-(1-methyl-4-piperidinyl)-1H-indazole hydrochloride]: the ED50 in assay [1] (estimated 50% inhibition) was 5 mg/kg.

As to `COC(=N)N1CCC(c2n[nH]c3ccccc23)CC1` [4-(1H-indazol-3-yl)piperidine-1-carboximidic acid methyl ester], in assay [2] (3 mg/kg p.o.), the “Decrease in Blood Pressure” value is listed as 47 mm Hg.

Regarding `COC(=N)N1CCC(c2n[nH]c3cc(F)ccc23)CC1` [4-(6-fluoro-1H-indazol-3-yl)piperidine-1-carboximidic acid methyl ester], in assay [2] (30 mg/kg p.o.), the “Decrease in Blood Pressure” value was 88 mm Hg.

As to `CN1CCC(c2nn(-c3ccccc3F)c3cc(F)ccc23)CC1.O=C(O)/C=C/C(=O)O` [6-Fluoro-1-(2-fluorophenyl)-3-(1-methyl-4-piperidinyl)-1H-indazole fumarate], the ED50 in assay [1] (estimated 50% inhibition) was 6.3 mg/kg.

As for `CN(C)CCC=C1c2ccccc2CCc2ccccc21` [amitriptyline, reference compound], the ED50 in assay [1] (estimated 50% inhibition) was 1.5 mg/kg.

`N=C(N)NCCN1CCCCCCC1` [guanethidine, reference compound]: in assay [2] (50 mg/kg p.o.), the “Decrease in Blood Pressure” value is reported as 20 mm Hg.

On to `CN(C)CCCN1c2ccccc2CCc2ccccc21` [imipramine, reference compound], for which the ED50 in assay [1] is 1.3 mg/kg.
